Drawing on the pKa sets of Baltruschat and Czodrowski (2020), this text covers pKa for 109 molecules.

A word on the pKa: it is the pH at which an ionisable group is half protonated. With `OCCOCCN1CCN(C(c2ccccc2)c2ccc(Cl)cc2)CC1` (centres undefined), the pKa stood at 7.75.
The figure for `CS(=O)(=O)Nc1ccc(Nc2c3ccccc3nc3cc(Br)ccc23)cc1` is 6.56.
The same measure for `CS(=O)(=O)Nc1ccc(Nc2c3ccccc3nc3c(C(N)=O)cccc23)cc1`: 6.12; for `CCC1(CCC(C)C)C(=O)N=C(O)NC1=O` (centres undefined): 7.8; for `C[C@H](O)c1nccc(N2C[C@@H](C)N(c3ccnc([C@@H](C)O)n3)[C@@H](C)C2)n1`: 6.
The figure for `CCCCNC(=O)NS(=O)(=O)c1ccc(C)cc1` is 5.3; for `NC(N)=S` it is 21.1; for `CC1=NS(=O)(=O)c2cc(Cl)ccc2N1` it is 8.62.
Regarding `CN(C)CCN=C(O)c1cccc2cc3ccccc3nc12`, the pKa was 3.54.
The figure for `CCN(CC)C(=O)[C@@H]1C=C2c3cccc4[nH]cc(c34)C[C@H]2N(C)C1` is 7.8; for `O=C(O)CCc1ccccc1` it is 4.64.
The figure for `CN1CCN2c3ncccc3Cc3ccccc3C2C1` (centres undefined) is 7.3; for `Cc1nc(N)ncc1CNC(=O)Cn1c(C)ccc(NS(=O)(=O)Cc2ccccc2)c1=O` it is 4.2; for `COc1cc(NS(C)(=O)=O)ccc1Nc1c2ccccc2nc2cc(C(F)(F)F)ccc12` it is 6.24.
The figure for `COc1cc(NS(C)(=O)=O)ccc1Nc1c2ccccc2nc2c(OCCCC(N)=O)cccc12` is 7.36; for `c1cncc(Nc2c3ccccc3nc3ccccc23)c1` it is 6.46.
The molecule `CS(=O)(=O)Nc1ccc(Nc2c3ccccc3nc3cc(C#N)ccc23)cc1` showed a pKa of 5.75.
The figure for `CN(C)CCNC(=O)c1cccc2c(N)c3ccccc3nc12` is 8.3; for `CCCCCS(=O)(=O)Nc1ccc(Nc2c3ccccc3nc3ccccc23)cc1` it is 7.19; for `COc1cc2nc(N3CCN(C(=O)C4CCCO4)CC3)nc(N)c2cc1OC` (centres undefined) it is 7.1.
The figure for `CS(=O)(=O)Nc1ccc(Nc2c3ccccc3nc3ccccc23)cc1` is 7.19; for `CCN(C)C` it is 10.2; for `CC(=O)c1ccc(Nc2c3ccccc3nc3ccccc23)cc1` it is 6.12.
The molecule `Cn1ccnc1F` gave a pKa of 2.3.
The same measure for `O=[N+]([O-])c1ccc(Nc2c3ccccc3nc3ccccc23)cc1`: 5.58; for `NCC(F)F`: 7.3; for `Nc1ccc(Nc2c3ccccc3nc3ccccc23)cc1`: 8.36.
The molecule `CCOC(=O)c1ccc(OS(N)(=O)=O)cc1` showed a pKa of 8.22. This pKa and that of the molecule before are within 0.2 log units of each other.
The same measure for `Cc1ccc2c(Nc3ccc(NS(C)(=O)=O)cc3)c3ccccc3nc2c1`: 7.49; for `CN(C)C1(CCCc2ccc(C(C)(C)C)cc2)COC1`: 7.2; for `CNc1cccc(Nc2c3ccccc3nc3ccccc23)c1`: 7.61.
`CC1=CN(c2ccc(S(N)(=O)=O)cc2)C(C2C=CN(C)C=C2)N1` (centres undefined) returned a pKa of 7.26.
The figure for `O=C(O)c1coc2ccccc2c1=O` is 8.85; for `CC(C)NCC(O)COc1ccc(CCNC(=O)NC(C)C)cc1` (centres undefined) it is 9.18; for `Cc1ncc[nH]1` it is 7.86.
The same measure for `CS(=O)(=O)Nc1ccc(Nc2c3ccccc3nc3ccc([N+](=O)[O-])cc23)cc1`: 5.42; for `CS(=O)(=O)Nc1ccc(Nc2c3ccccc3nc3cnccc23)cc1`: 5.32; for `Cc1cnc(NCCc2ccccc2)c(=O)n1CC(=O)NCc1cnc(N)nc1`: 3.9.
The same measure for `COc1cc(NS(C)(=O)=O)ccc1Nc1c2ccccc2nc2ccccc12`: 7.43; for `CC(CN1c2ccccc2Sc2ccccc21)N(C)C` (centres undefined): 9.1.
With `CCc1ccc2c(Nc3ccc(NS(C)(=O)=O)cc3OC)c3ccccc3nc2c1`, the pKa amounted to 7.65.
The figure for `CSc1ccc2c(c1)N(CCC1CCCCN1C)c1ccccc1S2` (centres undefined) is 9.5; for `CC(C)n1c(/C=C/C(O)CC(O)CC(=O)O)c(-c2ccc(F)cc2)c2ccccc21` (centres undefined) it is 4.31.
The figure for `Fc1ncc[nH]1` is 2.4.
The figure for `NC(N)=Nc1nc(CSCC/C(N)=N/S(N)(=O)=O)cs1` is 7.1; for `CC(CN(C)C)CN1c2ccccc2CCc2ccccc21` (centres undefined) it is 9.24; for `Cc1cnc(NCC2(c3ccc(Cl)cc3)CCC2)c(=O)n1CC(=O)NCc1cnc(N)cn1` it is 2.7.
`Clc1cc(Br)cc(Cl)c1N=C1NCCN1` showed a pKa of 7.72.
The same measure for `CCCCN`: 10.7; for `CC12CC3CC(C1)CC(N)(C3)C2`: 10.6.
In turn, `N#Cc1ccc(Nc2c3ccccc3nc3ccccc23)cc1` gave a pKa of 5.93.
The figure for `Nc1ccc(CC(C(=O)O)N(CCN(CC(=O)O)CC(=O)O)CCN(CC(=O)O)CC(=O)O)cc1` (centres undefined) is 10.2.
As to `O=C(Nc1ccon1)N1CCN(Cc2cccc(Oc3ccc(Cl)cc3)c2)CC1`, the pKa was -2.97.
`CN(C)CCCCc1ccc(C(C)(C)C)cc1` displayed a pKa of 9.9.
The figure for `COc1ccc2c(c1)N(CCN(C)C)CCO2` is 8.6; for `CC(C)(C)NCc1ccc(S(=O)(=O)c2csc(S(N)(=O)=O)c2)cc1.Cl` it is 8.08; for `Cc1ccc(NS(=O)(=O)Cc2ccccc2)c(=O)n1CC(=O)NC[C@H]1CN=C(N)NC1` it is 14.
Molecule `CN1C[C@H](C(=O)N[C@]2(C)O[C@@]3(O)[C@@H]4CCCN4C(=O)[C@H](Cc4ccccc4)N3C2=O)C=C2c3cccc4[nH]cc(c34)C[C@H]21` registered a pKa of 6.3.
`Clc1ccc(N=C2NCCN2)c(Cl)c1`: the pKa stood at 8.73.
`CN1CCN(CCCN2c3ccccc3Sc3ccc(Cl)cc32)CC1` gave a pKa of 8.1.
In turn, `Cl.Fc1ccc2c(c1)N(CCCN1CCOCC1)c1cc(F)ccc1CC2` showed a pKa of 7.6.
The same measure for `CN1CCC[C@H]1c1cccnc1`: 8.1; for `CC(=O)Nc1ccccc1Nc1c2ccccc2nc2ccccc12`: 7.24.
The same measure for `Cc1cc(C)c(N=C2NCCN2)c(C)c1`: 10.8.
The figure for `NS(=O)(=O)c1ccc(Nc2c3ccccc3nc3ccccc23)cc1` is 6.11.
Turning to `NC(=O)c1ccc(Nc2c3ccccc3nc3ccccc23)cc1`, the pKa was found to be 6.47.
In turn, `c1ccc(Nc2c3ccccc3nc3ccccc23)nc1` showed a pKa of 6.32.
The molecule `COc1ccc(-c2nnc(C(=O)N3CC(Oc4ccc(CN5CCCC56COC6)cc4)C3)o2)cc1` registered a pKa of 6.
The same measure for `CN1CCN(Cc2ccccc2S(=O)(=O)c2csc(S(N)(=O)=O)c2)CC1.Cl`: 6.4; for `FC1(F)CCNCC1`: 8.5; for `CN(c1ccc(Nc2c3ccccc3nc3ccccc23)cc1)S(C)(=O)=O`: 6.95.
The figure for `CCCCS(=O)(=O)Nc1ccc(Nc2c3ccccc3nc3ccccc23)cc1` is 7.18; for `COc1ccnc(C[S+]([O-])c2nc3cc(OC(F)F)ccc3[n-]2)c1OC.[Na+]` (centres undefined) it is 3.9.
In turn, `Cc1cc(Nc2c3ccccc3nc3ccccc23)ccc1NS(C)(=O)=O` came in with a pKa of 7.08.
The same measure for `Clc1cccc(Nc2c3ccccc3nc3ccccc23)c1`: 6.76; for `COc1ccc2c(Nc3ccc(NS(C)(=O)=O)cc3OC)c3ccccc3nc2c1`: 7.81.
The same measure for `Cc1ccn2c(CC#N)c(C)nc2c1OCc1ccccc1`: 5.67.
The same measure for `COc1cc(NS(C)(=O)=O)ccc1Nc1c2ccccc2nc2c(C(=O)N(C)C)cccc12`: 6.16; for `OB(O)C1=CCCS1`: 7.16.
`FC1CCNCC1` gave a pKa of 9.4.
The same measure for `Cc1nc2c(/C=C/Cc3ccccc3)cccn2c1N`: 6.75; for `C/C(=N\N=C(/S)N/N=C(\S)Nc1ccc(C(F)(F)F)cc1)c1ccccn1`: 6.77.
Take `Cc1cc(=O)n(-c2ccccc2)n1C`: the pKa was 1.44.
The figure for `O=C(c1ccc(Cl)cc1)c1ccc(OC2CN3CCC2CC3)cc1` (centres undefined) is 9.1; for `CN(C)CC1C2c3ccccc3C(c3ccccc32)C1CN(C)C` (centres undefined) it is 9.19; for `Cc1cnc(NCCc2ccccc2)c(=O)n1CC(=O)NC[C@@H]1CNC(N)=N[C@@H]1C` it is 14.
The same measure for `Cn1ccnc1[N+](=O)[O-]`: 0.48; for `Clc1ccc(Cl)c(N=C2NCCN2)c1`: 8.5; for `CC(C)(C)NC[C@H](O)COc1nsnc1N1CCOCC1`: 8.8.
The same measure for `Cc1ccc(NS(=O)(=O)Cc2ccccc2)c(=O)n1CC(=O)NCc1nc(CN)cs1`: 7.4.
`Clc1ccccc1N=C1NCCN1` yielded a pKa of 9.15.
The figure for `COc1cc(NS(C)(=O)=O)ccc1Nc1c2ccccc2nc2ncccc12` is 6.09; for `OCCN1CCN(CCCN2c3ccccc3Sc3ccc(Cl)cc32)CC1` it is 7.8.
`O=[N+]([O-])c1cc(Cl)c(N=C2NCCN2)c(Cl)c1` yielded a pKa of 6.86.
`CCc1ncc[nH]1` displayed a pKa of 7.73.
The figure for `COc1cccc(S(=O)(=O)Nc2cccn(CC(=O)NCc3ccc(C(=N)N)cc3)c2=O)c1` is 10.2.
The same measure for `CS(=O)(=O)Nc1ccc(Nc2c3ccccc3nc3c([N+](=O)[O-])cccc23)cc1`: 4.88.
The figure for `CCc1cccc(CC)c1NC1=NCCN1` is 10.6; for `Cc1cccc(Cl)c1N=C1NCCN1` it is 9.4.
As to `Cc1ccc(NS(=O)(=O)Cc2ccccc2)c(=O)n1CC(=O)NC[C@@H]1CNC(N)=N[C@@H]1C`, the pKa was determined as 14.
The same measure for `Cc1cccc2nc3ccccc3c(Nc3ccc(NS(C)(=O)=O)cc3)c12`: 6.43; for `Cc1ccc(C(=O)N(CCCN)[C@@H](c2oc3cc(Cl)ccc3c(=O)c2Cc2ccccc2)C(C)C)cc1`: 8.5.
The figure for `CN1C=CC(C2NC(C(F)(F)F)=CN2c2ccc(S(N)(=O)=O)cc2)C=C1` (centres undefined) is 7.58; for `COc1cc(NS(C)(=O)=O)ccc1Nc1c2ccccc2nc2c(Cl)cccc12` it is 6.11; for `CCCCNCc1ccc(C(=O)c2csc(S(N)(=O)=O)c2)cc1.Cl` it is 8.12.
The figure for `CCC12CC3CC(CC(N)(C3)C1)C2` is 10.6.
`Nc1ccccn1` came in with a pKa of 6.71.
The same measure for `O=C(NCCCNC1CCCCC1)[C@H]1C[C@@H]1c1ccccc1`: 10.4; for `COc1ccc2nc3ccccc3c(Nc3ccc(NS(C)(=O)=O)cc3)c2c1`: 6.87.
